Measurements: patent US9714250B2, “Crystalline forms of temozolomide and the method for preparing same” (Jiangsu Tasly Diyi Pharmaceutical Co., Ltd., priority 2013, dated 2017)

Tests used:
Assay type in all cases: physicochemical
Solubility test = conditions: for Amount of solvent for dissolving tested drug: about 10 mg tested drug
Method: It should be noted that each crystalline form of Form A, Form B and Form C has similar solubility properties. Hereinafter, Form A0, B0 and C were chosen only for illustrative purpose.
1. Solubility test of the crystalline Form A of Temozolomide (Form A0 prepared by the method of EXAMPLE 1). Solubility properties were assayed respectively by using DMSO, methanol, water, glacial acetic acid, 0.1M HCl, 0.1M NaOH and ethanol as the solvents.
2. Solubility test of the crystalline form B of Temozolomide (Form B0 prepared by the method of EXAMPLE 6). Solubility properties were assayed respectively by using DMSO, methanol, water, glacial acetic acid, 0.1M HCl, 0.1M NaOH and ethanol as the solvents.
3. Solubility test of the crystalline form C of Temozolomide (Form C prepared by the method of EXAMPLE 14). Solubility properties were assayed respectively by using DMSO, methanol, water, glacial acetic acid, 0.1M HCl, 0.1M NaOH and ethanol as the solvents.

[1] = Light exposure test (stability); conditions: for Stability in the light exposure test (conclusion): 4500±500Lx, 10 days; for Appearance and color / Content / Drying loss / Related substances: light intensity 4500±500Lx; for Related substances: HPLC
Method: (§1) In the following test, related substances were determined as follows: HPLC method was used and chromatographic conditions were as follows: C18 column using octadecylsilane bonded silica gel as the filler, isocratic elution using methanol: 0.5% glacial acetic acid solution (10:90) as the mobile phase, and detection wavelength was at 254 nm.
Crystalline form A of Temozolomide (Form A0 prepared by the method of EXAMPLE 1) was exposed under conditions of light intensity of 4500±500Lx, sampled and determined on the 5th and 10th day.
Crystalline form B of Temozolomide (Form B0 prepared by the method of EXAMPLE 6) was placed, exposed under conditions of light intensity of 4500±500Lx, sampled and determined on the 5th and 10th day.
Crystalline Form C of Temozolomide (Form C prepared by the method of EXAMPLE 14) was placed, exposed under conditions of light intensity of 4500±500Lx, sampled and determined on the 5th and 10th day.

[2] = High temperature test (stability); conditions: for Appearance and color / Content / Drying loss / Related substances: 60° C. incubator; for Related substances: HPLC; for Stability in the high-temperature test (conclusion): 60° C., 10 days
Method: as §1
Crystalline form A of Temozolomide (Form A0 prepared by the method of EXAMPLE 1) was placed in 60° C. incubator, sampled and determined on the 5th and 10th day.
Crystalline Form B of Temozolomide (Form B0 prepared by the method of EXAMPLE 6) was placed in 60° C. incubator, sampled and determined on the 5th and 10th day.
Crystalline Form C of Temozolomide (Form C prepared by the method of EXAMPLE 14) was placed in 60° C. incubator, sampled and determined on the 5th and 10th day.

[3] = Accelerated test (stability); conditions: 40±2° C., relative humidity 75±5%; for Stability in the accelerated test (conclusion): 6 months; for Appearance and color / Content / Related substances: polyethylene film bag; for Related substances: HPLC
Method: as §1
Crystalline Form A of Temozolomide (Form A0 prepared by the method of EXAMPLE 1) was sealed by a polyethylene film bag, placed under conditions of 40±2° C. and a relative humidity of 75±5% for 6 months, sampled and determined at the end of the 1st,2nd, 3rd and 6th month.
Crystalline Form B of Temozolomide (Form B0 prepared by the method of EXAMPLE 6) was sealed with a polyethylene film bag and placed under conditions of 40±2° C. and a relative humidity of 75±5% for 6 months, sampled and determined at the end of the 1st, 2nd, 3rd and 6th month.
Crystalline Form C of Temozolomide (Form C prepared by the method of EXAMPLE 14) was sealed with a polyethylene film bag and placed under conditions of 40±2° C. and a relative humidity of 75±5% for 6 months, sampled and determined at the end of the 1st, 2nd, 3rd and 6th month.

[4] = Stability test, overall conclusions; conditions: light exposure, high-temperature, high-humidity and accelerated tests
Method: as §1
It should be noted that each crystalline form of Form A, Form B and Form C has similar stability properties. Hereinafter, Form A0, Form B0 and Form C were chosen only for illustrative purpose.

With `Cn1nnc2c(C(N)=O)ncn2c1=O` [Form A, Temozolomide] the “Amount of solvent for dissolving 1 g of tested drug” value (from here on “Amount of solvent … of tested drug”) (Solubility test; solvent 0.1M HCl) was 700 mL, the Solubility (Solubility test; solvent 0.1M HCl) was “Slightly soluble” and the “Amount of solvent for dissolving tested drug” value (Solubility test; solvent 0.1M HCl) was 7 mL. For the same compound, the “Amount of solvent … of tested drug” value (Solubility test; solvent 0.1M NaOH) was 300 mL, the Solubility (Solubility test; solvent 0.1M NaOH) was “Slightly soluble” and the “Amount of solvent for dissolving tested drug” value (Solubility test; solvent 0.1M NaOH) was 3 mL. The “Amount of solvent … of tested drug” value (Solubility test; solvent DMSO) was 70 mL, the Solubility (Solubility test; solvent DMSO) was “sparingly” and the “Amount of solvent for dissolving tested drug” value (Solubility test; solvent DMSO) was 0.7 mL. For the same compound, the “Amount of solvent … of tested drug” value (Solubility test; solvent Ethanol) was 5500 mL, the Solubility (Solubility test; solvent Ethanol) was “Very slightly” and the “Amount of solvent for dissolving tested drug” value (Solubility test; solvent Ethanol) was 55 mL. The “Amount of solvent … of tested drug” value (Solubility test; solvent Glacial acetic acid) was 300 mL, the Solubility (Solubility test; solvent Glacial acetic acid) was “Slightly soluble” and the “Amount of solvent for dissolving tested drug” value (Solubility test; solvent Glacial acetic acid) was 3.0 mL. For the same compound, the “Amount of solvent … of tested drug” value (Solubility test; solvent Methanol) was 700 mL, the Solubility (Solubility test; solvent Methanol) was “Slightly soluble” and the “Amount of solvent for dissolving tested drug” value (Solubility test; solvent Methanol) was 7.0 mL. The “Amount of solvent … of tested drug” value (Solubility test; solvent Water) was 800 mL, the Solubility (Solubility test; solvent Water) was “Slightly soluble” and the “Amount of solvent for dissolving tested drug” value (Solubility test; solvent Water) was 8.0 mL. The “Stability in the light exposure test (conclusion)” value [1] was “stable”, the Appearance and color ([1]; 0th day) was “White powder” and the Content ([1]; 0th day) was 99.94%. For the same compound, the Drying loss ([1]; 0th day) was 0.35%, the Related substances ([1]; 0th day) was “Not detected” and the Appearance and color ([1]; 5th day) was “White powder”. The Content ([1]; 5th day) was 99.93%, the Drying loss ([1]; 5th day) was 0.33% and the Related substances ([1]; 5th day) was “Not detected”. For the same compound, the Appearance and color ([1]; 10th day) was “White powder”, the Content ([1]; 10th day) was 99.81% and the Drying loss ([1]; 10th day) was 0.39%. The Related substances ([1]; 10th day) was “Not detected”, the Appearance and color ([2]; 0th day) was “White powder” and the Content ([2]; 0th day) was 99.94%. For the same compound, the Drying loss ([2]; 0th day) was 0.41%, the Related substances ([2]; 0th day) was “Not detected” and the Appearance and color ([2]; 5th day) was “White powder”. The Content ([2]; 5th day) was 99.63%, the Drying loss ([2]; 5th day) was 0.38% and the Related substances ([2]; 5th day) was “Not detected”. The Appearance and color ([2]; 10th day) was “White powder”, the Content ([2]; 10th day) was 99.31% and the Drying loss ([2]; 10th day) was 0.34%. The Related substances ([2]; 10th day) was “Not detected”, the “Stability in the high-temperature test (conclusion)” value [2] was “stable” and the “Stability in the accelerated test (conclusion)” value [3] was “stable”. The Appearance and color ([3]; 0th month) was “White powder”, the Content ([3]; 0th month) was 99.94% and the Related substances ([3]; 0th month) was “Not detected”. For the same compound, the Appearance and color ([3]; 1st month) was “White powder”, the Content ([3]; 1st month) was 99.81% and the Related substances ([3]; 1st month) was “Not detected”. For the same compound, the Appearance and color ([3]; 2nd month) was “White powder”, the Content ([3]; 2nd month) was 99.64% and the Related substances ([3]; 2nd month) was “Not detected”. The Appearance and color ([3]; 3rd month) was “White powder”, the Content ([3]; 3rd month) was 99.92% and the Related substances ([3]; 3rd month) was “Not detected”. For the same compound, the Appearance and color ([3]; 6th month) was “White powder”, the Content ([3]; 6th month) was 99.62% and the Related substances ([3]; 6th month) was “Not detected”. The “Change in the appearance and color, the drying loss, the content and the related substances” value [4] was “no obvious change”.

With `Cn1nnc2c(C(N)=O)ncn2c1=O` [Form B, Temozolomide] the “Amount of solvent … of tested drug” value (Solubility test; solvent 0.1M HCl) was 800 mL, the Solubility (Solubility test; solvent 0.1M HCl) was “Slightly soluble” and the “Amount of solvent for dissolving tested drug” value (Solubility test; solvent 0.1M HCl) was 8 mL. The “Amount of solvent … of tested drug” value (Solubility test; solvent 0.1M NaOH) was 300 mL, the Solubility (Solubility test; solvent 0.1M NaOH) was “Slightly soluble” and the “Amount of solvent for dissolving tested drug” value (Solubility test; solvent 0.1M NaOH) was 3 mL. For the same compound, the “Amount of solvent … of tested drug” value (Solubility test; solvent DMSO) was 70 mL, the Solubility (Solubility test; solvent DMSO) was “sparingly” and the “Amount of solvent for dissolving tested drug” value (Solubility test; solvent DMSO) was 0.6 mL. The “Amount of solvent … of tested drug” value (Solubility test; solvent Ethanol) was 5700 mL, the Solubility (Solubility test; solvent Ethanol) was “Very slightly” and the “Amount of solvent for dissolving tested drug” value (Solubility test; solvent Ethanol) was 57 mL. For the same compound, the “Amount of solvent … of tested drug” value (Solubility test; solvent Glacial acetic acid) was 300 mL, the Solubility (Solubility test; solvent Glacial acetic acid) was “Slightly soluble” and the “Amount of solvent for dissolving tested drug” value (Solubility test; solvent Glacial acetic acid) was 3.0 mL. The “Amount of solvent … of tested drug” value (Solubility test; solvent Methanol) was 900 mL, the Solubility (Solubility test; solvent Methanol) was “Slightly soluble” and the “Amount of solvent for dissolving tested drug” value (Solubility test; solvent Methanol) was 9.0 mL. For the same compound, the “Amount of solvent … of tested drug” value (Solubility test; solvent Water) was 800 mL, the Solubility (Solubility test; solvent Water) was “Slightly soluble” and the “Amount of solvent for dissolving tested drug” value (Solubility test; solvent Water) was 8.0 mL. The “Stability in the light exposure test (conclusion)” value [1] was “stable”, the Appearance and color ([1]; 0th day) was “White powder” and the Content ([1]; 0th day) was 99.97%. The Drying loss ([1]; 0th day) was 0.38%, the Related substances ([1]; 0th day) was “Not detected” and the Appearance and color ([1]; 5th day) was “White powder”. The Content ([1]; 5th day) was 99.92%, the Drying loss ([1]; 5th day) was 0.33% and the Related substances ([1]; 5th day) was “Not detected”. For the same compound, the Appearance and color ([1]; 10th day) was “White powder”, the Content ([1]; 10th day) was 99.95% and the Drying loss ([1]; 10th day) was 0.29%. For the same compound, the Related substances ([1]; 10th day) was “Not detected”, the Appearance and color ([2]; 0th day) was “White powder” and the Content ([2]; 0th day) was 99.97%. For the same compound, the Drying loss ([2]; 0th day) was 0.33%, the Related substances ([2]; 0th day) was “Not detected” and the Appearance and color ([2]; 5th day) was “White powder”. The Content ([2]; 5th day) was 99.73%, the Drying loss ([2]; 5th day) was 0.27% and the Related substances ([2]; 5th day) was “Not detected”. For the same compound, the Appearance and color ([2]; 10th day) was “White powder”, the Content ([2]; 10th day) was 99.61% and the Drying loss ([2]; 10th day) was 0.29%. The Related substances ([2]; 10th day) was “Not detected”, the “Stability in the high-temperature test (conclusion)” value [2] was “stable” and the “Stability in the accelerated test (conclusion)” value [3] was “stable”. For the same compound, the Appearance and color ([3]; 0th month) was “White powder”, the Content ([3]; 0th month) was 99.97% and the Related substances ([3]; 0th month) was “Not detected”. For the same compound, the Appearance and color ([3]; 1st month) was “White powder”, the Content ([3]; 1st month) was 99.71% and the Related substances ([3]; 1st month) was “Not detected”. For the same compound, the Appearance and color ([3]; 2nd month) was “White powder”, the Content ([3]; 2nd month) was 99.82% and the Related substances ([3]; 2nd month) was “Not detected”. The Appearance and color ([3]; 3rd month) was “White powder”, the Content ([3]; 3rd month) was 99.73% and the Related substances ([3]; 3rd month) was “Not detected”. The Appearance and color ([3]; 6th month) was “White powder”, the Content ([3]; 6th month) was 99.85% and the Related substances ([3]; 6th month) was “Not detected”. The “Change in the appearance and color, the drying loss, the content and the related substances” value [4] was “no obvious change”.
